From patent US7351408B2 (priority 1997, dated 2008)

How the values were obtained:
Assay type in all cases: cell-based, human
[1] = test system: Jurkat cells
[2] = test system: HeLa cells
[3] = test system: Jurkat cells; assay: Cell morphology and rate of cell growth during prolonged treatment; conditions: up to 6 weeks
Source text: We have also determined the quantitative and physiological limits to the cell surface expression of reactive functional groups. […] At saturation, we calculated the number of ketones accessible to chemoselective ligation and flow cytometry analysis to be approximately 1.8×10^6 per cell (32). No effects on cell morphology or the rate of cell growth were observed during prolonged (up to 6 weeks) treatment with ManLev.

[4] = test system: HL-60 cells
[5] = test system: Jurkat cells; assay: Normal sialic acid released by sialidase digestion, quantified by HPAEC
Source text: We therefore evaluated the effects of ManLev treatment on the amount of normal sialic acid on Jurkat cells, expecting a reduction.

| Compound | increase in fluorescence above the background level (ketone expression) [1] | increase in fluorescence above the background level (ketone expression) [2] | effects on cell morphology or the rate of cell growth [3] | increase in fluorescence above the background level (ketone expression) [4] | dose dependence of ketone expression [1] | number of ketones accessible to chemoselective ligation and flow cytometry analysis [1] | amount of sialic acid released by sialidase digestion, lower than that from ManNAc-treated cells [5] | effect on ketone expression resulting from ManLev treatment [1] | effect on ketone expression resulting from ManLev treatment [2] | effect on ketone expression resulting from ManLev treatment [4] |
| --- | --- | --- | --- | --- | --- | --- | --- | --- | --- | --- |
| CC(=O)CCC(=O)N[C@H]1C(O)O[C@H](CO)[C@@H](O)[C@@H]1O (stereo partly drawn) [GlcLev, N-levulinoyl glucosamine] | only background fluorescence | – | – | – | – | – | – | – | – | – |
| CC(=O)CCC(=O)N[C@@H]1C(O)O[C@H](CO)[C@@H](O)[C@@H]1O (stereo partly drawn) [ManLev, N-levulinoyl mannosamine] | ≤ 30 fold | ≤ 30 fold | No effects | ≤ 30 fold | dose dependent and saturable | approximately 1.8×10^6 per cell | approximately 10 fold | – | – | – |
| CC(=O)N[C@@H]1C(O)O[C@H](CO)[C@@H](O)[C@@H]1O (stereo partly drawn) [ManNAc, N-Acetylmannosamine, reference compound] | only a background level of fluorescence | only a background level of fluorescence | – | only a background level of fluorescence | – | – | – | inhibited | – | – |
| tunicamycin | – | – | – | – | – | – | – | inhibited by tunicamycin in a dose-dependent fashion | unaffected | unaffected |
